Test results taken from US10543212B2, “Substituted amines for treating cardiac diseases” (Cardurion Pharmaceuticals, LLC, priority 2017, dated 2020).
Structures can show the parent of a compound that is named as a salt.

Each molecule was assayed against T1, Full-length, GST-tagged, human CaMKIIδ (Homo sapiens, UniProt Q13557) (assay: CaMKIIδ binding assay (TR-FRET with BODIPY-labeled probe ligand)). Settings: Table 2; CaMKIIδ binding assay, activity given as class A/B/C.
T1 construct: Full-Length, Glutathione-S-Transferase(GST)-Tagged, Human CaMKIIδ was purchased from Carna Biosciences; purchased Carna Biosciences 02-111
T1 sequence (Q13557 1-478 isoform Q13557-12): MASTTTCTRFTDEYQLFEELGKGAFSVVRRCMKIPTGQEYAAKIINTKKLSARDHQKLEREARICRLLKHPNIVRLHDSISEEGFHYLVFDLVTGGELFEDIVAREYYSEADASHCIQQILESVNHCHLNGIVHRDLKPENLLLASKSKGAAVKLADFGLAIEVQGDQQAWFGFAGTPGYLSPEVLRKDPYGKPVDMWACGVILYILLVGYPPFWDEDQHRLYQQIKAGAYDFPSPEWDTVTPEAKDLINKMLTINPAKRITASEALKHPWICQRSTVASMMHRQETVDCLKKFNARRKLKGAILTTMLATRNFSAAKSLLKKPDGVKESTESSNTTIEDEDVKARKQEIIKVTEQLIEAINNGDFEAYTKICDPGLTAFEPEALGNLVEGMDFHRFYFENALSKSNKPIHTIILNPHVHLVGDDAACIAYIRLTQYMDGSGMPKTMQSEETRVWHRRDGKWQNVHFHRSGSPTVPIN
How it was run: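 Compounds were tested as 4-fold, eight-point series for 1 hr at room temperature, and IC50 was obtained by logistic fitting against a 3 μM parent-compound control. Signal came from displacement of a 300 nM BODIPY ligand from 0.5 nM GST-CaMKIIδ, detected via Tb-anti-GST in calmodulin/Ca2+ (pH 7.6).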
For `C[C@@H](Cn1cnnn1)Oc1cc(-c2cnc(Nc3cn([C@H]4CC[C@H](N5CCOCC5)CC4)nc3C(F)(F)F)nc2)ccc1F` [Example 808, 5-(3-(((S)-1-(1H-tetrazol-1-yl)propan-2-yl)oxy)-4-fluorophenyl)-N-(1-(trans-4-morpholinocyclohexyl)-3-(trifluoromethyl)-1H-pyrazol-4-yl)pyrimidin-2-amine], the IC50 was < 10 nM. With `Cc1ccc(-c2cnc(Nc3cn([C@H]4CC[C@@H](N5CCOCC5)CC4)nc3C(F)(F)F)nc2)cc1O[C@@H](C)Cn1cnnn1` [Example 809, 5-(3-(((S)-1-(1H-tetrazol-1-yl)propan-2-yl)oxy)-4-methylphenyl)-N-(1-(cis-4-morpholinocyclohexyl)-3-(trifluoromethyl)-1H-pyrazol-4-yl)pyrimidin-2-amine] the IC50 was 10 to 100 nM. For `Cc1ccc(-c2cnc(Nc3cn([C@H]4CC[C@H](N5CCOCC5)CC4)nc3C(F)(F)F)nc2)cc1O[C@@H](C)Cn1cnnn1` [Example 810, 5-(3-(((S)-1-(1H-tetrazol-1-yl)propan-2-yl)oxy)-4-methylphenyl)-N-(1-(trans-4-morpholinocyclohexyl)-3-(trifluoromethyl)-1H-pyrazol-4-yl)pyrimidin-2-amine], the IC50 was < 10 nM. For `Cc1ccc(-c2cnc(Nc3cn([C@H]4CC[C@H](N5CCOCC5)CC4)nc3OCC(F)(F)F)nc2)cc1O[C@@H](C)Cn1cnnn1` [Example 811, 5-(3-(((S)-1-(1H-tetrazol-1-yl)propan-2-yl)oxy)-4-methylphenyl)-N-(1-(trans-4-morpholinocyclohexyl)-3-(2,2,2-trifluoroethoxy)-1H-pyrazol-4-yl)pyrimidin-2-amine], the IC50 was < 10 nM. With `Cc1ccc(-c2cnc(Nc3cn([C@H]4CC[C@@H](N5CCOCC5)CC4)nc3OCC(F)(F)F)nc2)cc1O[C@@H](C)Cn1cnnn1` [Example 812, 5-(3-(((S)-1-(1H-tetrazol-1-yl)propan-2-yl)oxy)-4-methylphenyl)-N-(1-(cis-4-morpholinocyclohexyl)-3-(2,2,2-trifluoroethoxy)-1H-pyrazol-4-yl)pyrimidin-2-amine] the IC50 was < 10 nM. `C[C@@H](Cn1cnnn1)Oc1cc(-c2cnc(Nc3cn([C@H]4CC[C@H](N5CCOCC5)CC4)nc3OCC(F)(F)F)nc2)ccc1F` [Example 813, 5-(3-(((S)-1-(1H-tetrazol-1-yl)propan-2-yl)oxy)-4-fluorophenyl)-N-(1-(trans-4-morpholinocyclohexyl)-3-(2,2,2-trifluoroethoxy)-1H-pyrazol-4-yl)pyrimidin-2-amine] was tested, and the IC50 was < 10 nM. `C[C@@H](Cn1cnnn1)Oc1cc(-c2cnc(Nc3cn([C@H]4CC[C@@H](N5CCOCC5)CC4)nc3OCC(F)(F)F)nc2)ccc1F` [Example 814, 5-(3-(((S)-1-(1H-tetrazol-1-yl)propan-2-yl)oxy)-4-fluorophenyl)-N-(1-(cis-4-morpholinocyclohexyl)-3-(2,2,2-trifluoroethoxy)-1H-pyrazol-4-yl)pyrimidin-2-amine] showed an IC50 of 10 to 100 nM. With `CC(C)N1CC2(CC(n3cc(Nc4ncc(-c5ccc(Cl)c(O[C@@H](C)Cn6cnnn6)c5)cn4)c(OCC(F)(F)F)n3)C2)C1` [Example 815, (S)-5-(3-((1-(1H-tetrazol-1-yl)propan-2-yl)oxy)-4-chlorophenyl)-N-(1-(2-isopropyl-2-azaspiro[3.3]heptan-6-yl)-3-(2,2,2-trifluoroethoxy)-1H-pyrazol-4-yl)pyrimidin-2-amine] the IC50 was < 10 nM. In the case of `C[C@@H](Cn1cnnn1)Oc1cc(-c2cnc(Nc3cn(CC(C)(C)O)nc3OCC(F)(F)F)nc2)ccc1Cl` [Example 816, (S)-1-(4-((5-(3-((1-(1H-tetrazol-1-yl)propan-2-yl)oxy)-4-chlorophenyl)pyrimidin-2-yl)amino)-3-(2,2,2-trifluoroethoxy)-1H-pyrazol-1-yl)-2-methylpropan-2-ol], the IC50 is reported as < 10 nM. For `C[C@@H](Cn1cnnn1)Oc1cc(-c2cnc(Nc3cn([C@H]4CC[C@H](N5CCOCC5)CC4)nc3OCC(F)(F)F)nc2)ccc1C#N` [Example 817, 2-(((S)-1-(1H-tetrazol-1-yl)propan-2-yl)oxy)-4-(2-((1-(trans-4-morpholinocyclohexyl)-3-(2,2,2-trifluoroethoxy)-1H-pyrazol-4-yl)amino)pyrimidin-5-yl)benzonitrile hydrochloride], the IC50 was < 10 nM. With `C[C@@H](Cn1cnnn1)Oc1cc(-c2cnc(Nc3cn([C@H]4CC[C@@H](N5CCOCC5)CC4)nc3OCC(F)(F)F)nc2)ccc1C#N` [Example 818, 2-(((S)-1-(1H-tetrazol-1-yl)propan-2-yl)oxy)-4-(2-((1-(cis-4-morpholinocyclohexyl)-3-(2,2,2-trifluoroethoxy)-1H-pyrazol-4-yl)amino)pyrimidin-5-yl)benzonitrile] the IC50 was < 10 nM. Molecule `C[C@@H](Cn1cc(F)cn1)Oc1cc(-c2cnc(Nc3cn(C4CCN(C5CCOCC5)CC4)nc3OCC(F)(F)F)nc2)ccc1C#N` [Example 819, (S)-2-((1-(4-fluoro-1H-pyrazol-1-yl)propan-2-yl)oxy)-4-(2-((1-(1-(tetrahydro-2H-pyran-4-yl)piperidin-4-yl)-3-(2,2,2-trifluoroethoxy)-1H-pyrazol-4-yl)amino)pyrimidin-5-yl)benzonitrile] has an IC50 of 10 to 100 nM. In the case of `C[C@@H](Cn1cnnn1)Oc1cc(-c2cnc(Nc3cn([C@H]4CC[C@@H](N5CCOCC5)CC4)nc3OC3COC3)nc2)ccc1Cl` [Example 820, 5-(3-(((S)-1-(1H-tetrazol-1-yl)propan-2-yl)oxy)-4-chlorophenyl)-N-(1-(cis-4-morpholinocyclohexyl)-3-(oxetan-3-yloxy)-1H-pyrazol-4-yl)pyrimidin-2-amine], the IC50 is reported as < 10 nM. For `C[C@@H](Cn1cnnn1)Oc1cc(-c2cnc(Nc3cn([C@H]4CC[C@H](N5CCOCC5)CC4)nc3OC3COC3)nc2)ccc1Cl` [Example 821, 5-(3-(((S)-1-(1H-tetrazol-1-yl)propan-2-yl)oxy)-4-chlorophenyl)-N-(1-(trans-4-morpholinocyclohexyl)-3-(oxetan-3-yloxy)-1H-pyrazol-4-yl)pyrimidin-2-amine], the IC50 was < 10 nM. `C[C@@H](Cn1cnnn1)Oc1cc(-c2cnc(Nc3cn([C@H]4CC[C@H](N5CC6(COC6)C5)CC4)nc3C(F)(F)F)nc2)ccc1Cl` [Example 822, 5-(3-(((S)-1-(1H-tetrazol-1-yl)propan-2-yl)oxy)-4-chlorophenyl)-N-(1-(trans-4-(2-oxa-6-azaspiro[3.3]heptan-6-yl)cyclohexyl)-3-(trifluoromethyl)-1H-pyrazol-4-yl)pyrimidin-2-amine] was tested, and the IC50 was < 10 nM. In the case of `C[C@@H](Cn1cnnn1)Oc1cc(-c2cnc(Nc3cn([C@H]4CC[C@@H](N5CC6(COC6)C5)CC4)nc3C(F)(F)F)nc2)ccc1Cl` [Example 823, 5-(3-(((S)-1-(1H-tetrazol-1-yl)propan-2-yl)oxy)-4-chlorophenyl)-N-(1-(cis-4-(2-oxa-6-azaspiro[3.3]heptan-6-yl)cyclohexyl)-3-(trifluoromethyl)-1H-pyrazol-4-yl)pyrimidin-2-amine], the IC50 is reported as < 10 nM. With `C[C@@H](Cn1cnnn1)Oc1cc(-c2cnc(Nc3cn(C4CCNCC4)nc3OCCF)nc2)ccc1Cl` [Example 824, (S)-5-(3-((1-(1H-tetrazol-1-yl)propan-2-yl)oxy)-4-chlorophenyl)-N-(3-(2-fluoroethoxy)-1-(piperidin-4-yl)-1H-pyrazol-4-yl)pyrimidin-2-amine] the IC50 was < 10 nM. With `C[C@@H](Cn1cnnn1)Oc1cc(-c2cnc(Nc3cn(C4CCN(C5CCOCC5)CC4)nc3OCCF)nc2)ccc1Cl` [Example 825, (S)-5-(3-((1-(1H-tetrazol-1-yl)propan-2-yl)oxy)-4-chlorophenyl)-N-(3-(2-fluoroethoxy)-1-(1-(tetrahydro-2H-pyran-4-yl)piperidin-4-yl)-1H-pyrazol-4-yl)pyrimidin-2-amine] the IC50 was < 10 nM. With `C[C@@H](Cn1cnnn1)Oc1cc(-c2cnc(Nc3cn(C4CCN(C5CCC5)CC4)nc3OCCF)nc2)ccc1Cl` [Example 826, (S)-5-(3-((1-(1H-tetrazol-1-yl)propan-2-yl)oxy)-4-chlorophenyl)-N-(1-(1-cyclobutylpiperidin-4-yl)-3-(2-fluoroethoxy)-1H-pyrazol-4-yl)pyrimidin-2-amine] the IC50 was < 10 nM. With `C[C@@H](Cn1cnnn1)Oc1cc(-c2cnc(Nc3cn([C@H]4CC[C@H](N5CC6(COC6)C5)CC4)nc3OCC(F)F)nc2)ccc1Cl` [Example 827, 5-(3-(((S)-1-(1H-tetrazol-1-yl)propan-2-yl)oxy)-4-chlorophenyl)-N-(1-(trans-4-(2-oxa-6-azaspiro[3.3]heptan-6-yl)cyclohexyl)-3-(2,2-difluoroethoxy)-1H-pyrazol-4-yl)pyrimidin-2-amine] the IC50 was < 10 nM. With `C[C@@H](Cn1cnnn1)Oc1cc(-c2cnc(Nc3cn([C@H]4CC[C@@H](N5CC6(COC6)C5)CC4)nc3OCC(F)F)nc2)ccc1Cl` [Example 828, 5-(3-(((S)-1-(1H-tetrazol-1-yl)propan-2-yl)oxy)-4-chlorophenyl)-N-(1-(cis-4-(2-oxa-6-azaspiro[3.3]heptan-6-yl)cyclohexyl)-3-(2,2-difluoroethoxy)-1H-pyrazol-4-yl)pyrimidin-2-amine] the IC50 was < 10 nM. Work on `C[C@@H](Cn1cc(F)cn1)Oc1cc(-c2cnc(Nc3cn([C@H]4CC[C@@H](N5CCOCC5)CC4)nc3OCC(F)(F)F)nc2)ccc1C#N` [Example 829, 2-(((S)-1-(4-fluoro-1H-pyrazol-1-yl)propan-2-yl)oxy)-4-(2-((1-(cis-4-morpholinocyclohexyl)-3-(2,2,2-trifluoroethoxy)-1H-pyrazol-4-yl)amino)pyrimidin-5-yl)benzonitrile] yielded an IC50 of 10 to 100 nM. For `C[C@@H](Cn1cc(F)cn1)Oc1cc(-c2cnc(Nc3cn([C@H]4CC[C@H](N5CCOCC5)CC4)nc3OCC(F)(F)F)nc2)ccc1C#N` [Example 830, 2-(((S)-1-(4-fluoro-1H-pyrazol-1-yl)propan-2-yl)oxy)-4-(2-((1-(trans-4-morpholinocyclohexyl)-3-(2,2,2-trifluoroethoxy)-1H-pyrazol-4-yl)amino)pyrimidin-5-yl)benzonitrile], the IC50 was < 10 nM.
